Measurements: patent publication EP4610269A1, “UROKINASE PLASMINOGEN ACTIVATOR SURFACE RECEPTOR (UPAR) LIGANDS FOR DIAGNOSTIC OR THERAPEUTIC USE” (3B Pharmaceuticals GmbH, priority 2024, dated 2025)
Read-outs that look alike come from different tables or passages of the source. Where a SMILES comes first, the peptide text is derived from it. Bridges are numbered along the chain shown (N, C = ends). Side-chain parts run from the residue outwards. [ ]: non-standard residue; d: D form. The star is where a group is joined. X4 = C[N+](C)(CCCC[C@H](NC(=O)CN1CCN(CC(=O)O)CCN(CC(=O)O)CCN(CC(=O)O)CC1)C(=O)*)CCCS(=O)(=O)[O-]; DOTA = O=C(O)CN1CCN(CC(=O)O)CCN(CC(=O)*)CCN(CC(=O)O)CC1; X5 = O=C(O)CN1CCN(CC(=O)O)CCN([C@H](CCC(=O)*)C(=O)O)CC1; Lys(Me3) = C[N+](C)(C)CCCC[C@H](N)C(=O)O; Oic = O=C(O)[C@@H]1C[C@@H]2CCCC[C@@H]2N1; Phe(4-Cl) = N[C@@H](Cc1ccc(Cl)cc1)C(=O)O; Pro(cis-4-F) = O=C(O)[C@@H]1C[C@H](F)CN1; Phe(2-Cl) = N[C@@H](Cc1ccccc1Cl)C(=O)O; Dopa = N[C@@H](Cc1ccc(O)c(O)c1)C(=O)O; Hyp = O=C(O)[C@@H]1C[C@@H](O)CN1; LaDOTA = La(III) DOTA conjugate; Pentanoyl(4-Me) = CC(C)CCC(=O)*; Cit = NC(=O)NCCC[C@H](N)C(=O)O; Butoxycarbonyl = CCCCOC(=O)*; Thz = O=C(O)[C@@H]1CSCN1; Aze = O=C(O)[C@@H]1CCN1; Nva = CCC[C@H](N)C(=O)O; Pentanoyl = CCCCC(=O)*; AEEA = NCCOCCOCC(=O)O

Key:
[1] = molecular target: T1, human uPAR (uPAR-Fc) (Homo sapiens, UniProt Q03405); test: Surface plasmon resonance (SPR) assay, single cycle kinetics; type: binding; conditions: pKD category for uPAR SPR activity assay, uPAR-Fc on Protein A-Chip, 25°C; for Kd: read-out: pKD CAT (converted)
T1 construct: comprising amino acids Leu23-Arg303 according to UniProt entry Q03405.1; purchased R&D Systems 10378-UK-100
T1 sequence (Q03405 23-303): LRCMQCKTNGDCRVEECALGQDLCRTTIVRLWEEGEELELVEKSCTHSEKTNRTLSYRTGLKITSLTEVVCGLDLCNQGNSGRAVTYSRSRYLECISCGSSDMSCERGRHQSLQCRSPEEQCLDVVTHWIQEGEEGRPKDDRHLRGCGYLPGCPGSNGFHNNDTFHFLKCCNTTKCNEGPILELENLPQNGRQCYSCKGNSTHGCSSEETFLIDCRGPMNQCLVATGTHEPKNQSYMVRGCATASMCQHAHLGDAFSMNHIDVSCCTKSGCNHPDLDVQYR
Summary of the method: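 uPAR-Fc (Leu23-Arg303 extracellular domains, human IgG1 Fc) captured on Protein A chip to ~2000 RU; single-cycle kinetics at 25°C in HEPES running buffer pH 7.4 with 0.1% DMSO. KD from double-referenced sensorgrams fitted to 1:1 Langmuir model, reported as pKD.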

[2] = molecular target: T2, uPAR-expressing HEC-265 human endometrial adenocarcinoma cells (Homo sapiens, UniProt Q03405); test: Competitive FACS binding assay; conditions: pIC50 category of FACS binding
T2 construct: Cell surface uPAR-expressing HEC-265 human endometrial adenocarcinoma cells; host or cells: HEC-265
T2 sequence (Q03405 23-335): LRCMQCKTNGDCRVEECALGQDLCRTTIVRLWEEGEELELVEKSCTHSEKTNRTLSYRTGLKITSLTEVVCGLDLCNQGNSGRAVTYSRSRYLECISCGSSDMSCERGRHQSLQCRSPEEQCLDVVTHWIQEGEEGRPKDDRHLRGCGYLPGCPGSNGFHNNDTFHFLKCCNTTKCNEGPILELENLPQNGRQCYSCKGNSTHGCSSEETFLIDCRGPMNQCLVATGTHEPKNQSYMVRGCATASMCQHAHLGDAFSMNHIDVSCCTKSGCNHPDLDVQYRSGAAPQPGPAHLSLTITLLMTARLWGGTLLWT
Summary of the method: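 Competitive displacement of a 10 nM biotinylated peptide from HEC-265 cells (1 h, 4 °C, PBS/1% BSA), detected via APC-streptavidin by flow cytometry. pIC50 from four-parameter logistic fit of median fluorescence versus concentration.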

| Compound | Kd ([1]; single cycle kinetics) | IC50 [2] | Kd [1] | pKD CAT [1] | pIC50 CAT [2] |
| --- | --- | --- | --- | --- | --- |
| CCCCOC(=O)N[C@H]1CSSC[C@@H](C(N)=O)NC(=O)[C@H](CCC)NC(=O)[C@H]([C@@H](C)CC)NC(=O)[C@@H]2C[C@@H](O)CN2C(=O)[C@@H]2C[C@H](F)CN2C(=O)[C@H](Cc2ccccc2)NC(=O)[C@H](Cc2ccc(O)cc2)NC(=O)[C@H](CCCCNC(=O)[C@@H](CC(=O)O)NC(=O)CN2CCN(CC(=O)O)CCN(CC(=O)O)CCN(CC(=O)O)CC2)NC(=O)[C@H]([C@@H](C)O)NC1=O [UPAR-424, Butoc-[Cys-Thr-Lys(DOTA-asp)-Tyr-Phe-4Cfp-Hyp-Ile-Nva-Cys]-NHz] (Butoxycarbonyl-CTK([dD-DOTA])YF[Pro(cis-4-F)][Hyp]I[Nva]C-NH2; disulfide 1-10) | < 1.58 nM | ≤ 10 nM |  |  |  |
| CCCCOC(=O)N[C@H]1CSSC[C@@H](C(N)=O)NC(=O)[C@H](CCC)NC(=O)[C@H]([C@@H](C)CC)NC(=O)[C@@H]2C[C@@H](O)CN2C(=O)[C@@H]2C[C@H](F)CN2C(=O)[C@H](Cc2ccccc2)NC(=O)[C@H](Cc2ccc(O)c(O)c2)NC(=O)[C@H](CCCCNC(=O)CC[C@H](C(=O)O)N2CCN(CC(=O)O)CCN(CC(=O)O)CC2)NC(=O)[C@H]([C@@H](C)O)NC1=O [UPAR-444, Butoc-[Cys-Thr-Lys(NODAGA)-Dopa-Phe-4Cfp-Hyp-Ile-Nva-Cys]-NH2] (Butoxycarbonyl-CTK(X5)[Dopa]F[Pro(cis-4-F)][Hyp]I[Nva]C-NH2; disulfide 1-10) | < 1.58 nM | ≤ 10 nM |  |  |  |
| CCCCC(=O)N[C@H]1CSSC[C@@H](C(N)=O)NC(=O)[C@H](CCC)NC(=O)[C@H]([C@@H](C)CC)NC(=O)[C@H](Cc2ccc(O)cc2)NC(=O)[C@@H]2CCCN2C(=O)[C@H](Cc2ccccc2)NC(=O)[C@H](Cc2ccc(O)cc2)NC(=O)[C@H](CCC(N)=O)NC(=O)[C@H](CCCNC(=N)N)NC1=O [UPAR-226, Pent-[Cys-Arg-Gln-Tyr-Phe-Pro-Tyr-Ile-Nva-Cys]-NH2] (Pentanoyl-CRQYFPYI[Nva]C-NH2; disulfide 1-10) |  | ≤ 10 nM | < 1.58 nM |  |  |
| Pent-[Cys-KMe3-Lys(LaDOTA)-Tyr-Phe-Pro-Hyp-Ile-Nva-Cys]-NH2 (Pentanoyl-C[Lys(Me3)]K(LaDOTA)YFP[Hyp]I[Nva]C-NH2; disulfide 1-10; not fully specified; also: La(III) complexed by DOTA) [UPAR-183] |  |  |  | A (pKD values ≥ 8.8) | A (pIC50 values ≥8.0) |
| CCCCC(=O)N[C@H]1CSSC[C@@H](C(N)=O)NC(=O)[C@H](CCC)NC(=O)[C@H]([C@@H](C)CC)NC(=O)[C@@H]2C[C@@H](O)CN2C(=O)[C@@H]2CCCN2C(=O)[C@H](Cc2ccccc2)NC(=O)[C@H](Cc2ccc(O)cc2)NC(=O)[C@H](CCC(N)=O)NC(=O)[C@H](CCCNC(N)=O)NC1=O [UPAR-309, Pent-[Cys-Cit-Gln-Tyr-Phe-Pro-Hyp-Ile-Nva-Cys]-NHz] (Pentanoyl-C[Cit]QYFP[Hyp]I[Nva]C-NH2; disulfide 1-10) |  | ≤ 10 nM | < 1.58 nM |  |  |
| CCCCOC(=O)N[C@H]1CSSC[C@@H](C(N)=O)NC(=O)[C@H](CCC)NC(=O)[C@H]([C@@H](C)CC)NC(=O)[C@@H]2C[C@@H](O)CN2C(=O)[C@@H]2C[C@H](F)CN2C(=O)[C@H](Cc2ccccc2)NC(=O)[C@H](Cc2ccc(O)cc2)NC(=O)[C@H](CCCCNC(=O)[C@H](CCCC[N+](C)(C)CCCS(=O)(=O)[O-])NC(=O)CN2CCN(CC(=O)O)CCN(CC(=O)O)CCN(CC(=O)O)CC2)NC(=O)[C@H]([C@@H](C)O)NC1=O [UPAR-422, Butoc-[Cys-Thr-Lys(DOTA-Kzw)-Tyr-Phe-4Cfp-Hyp-Ile-Nva-Cys]-NHz] (Butoxycarbonyl-CTK(X4)YF[Pro(cis-4-F)][Hyp]I[Nva]C-NH2; disulfide 1-10) | < 1.58 nM | ≤ 10 nM |  |  |  |
| CCCCOC(=O)N[C@H]1CSSC[C@@H](C(N)=O)NC(=O)[C@H](CCC)NC(=O)[C@H]([C@@H](C)CC)NC(=O)[C@@H]2C[C@@H](O)CN2C(=O)[C@@H]2C[C@H](F)CN2C(=O)[C@H](Cc2ccc(Cl)cc2)NC(=O)[C@H](Cc2ccc(O)cc2)NC(=O)[C@H](CCCCNC(=O)CN2CCN(CC(=O)O)CCN(CC(=O)O)CCN(CC(=O)O)CC2)NC(=O)[C@H](CCCNC(N)=O)NC1=O [UPAR-304, Butoc-[Cys-Cit-Lys(DOTA)-Tyr-Pcf-4Cfp-Hyp-Ile-Nva-Cys]-NH2] (Butoxycarbonyl-C[Cit]K(DOTA)Y[Phe(4-Cl)][Pro(cis-4-F)][Hyp]I[Nva]C-NH2; disulfide 1-10) |  | ≤ 10 nM | < 1.58 nM |  |  |

Results, then the compound that gave them:

| Kd ([1]; single cycle kinetics) | IC50 [2] | Kd [1] | pKD CAT [1] | pIC50 CAT [2] | Compound |
| --- | --- | --- | --- | --- | --- |
| < 1.58 nM | ≤ 10 nM |  |  |  | CCCCC(=O)N[C@H]1CSSC[C@@H](C(N)=O)NC(=O)[C@H](CCC)NC(=O)[C@H]([C@@H](C)CC)NC(=O)[C@@H]2CCCN2C(=O)[C@@H]2CCCN2C(=O)[C@H](Cc2ccccc2)NC(=O)[C@H](Cc2ccc(O)cc2)NC(=O)[C@H](CCCCNC(=O)CN2CCN(CC(=O)O)CCN(CC(=O)O)CCN(CC(=O)O)CC2)NC(=O)[C@H](CCCNC(N)=O)NC1=O [UPAR-473, Pent-[Cys-Cit-Lys(DOTA)-Tyr-Phe-Pro-Pro-Ile-Nva-Cys]-NH2] (Pentanoyl-C[Cit]K(DOTA)YFPPI[Nva]C-NH2; disulfide 1-10) |
| < 1.58 nM | ≤ 10 nM |  |  |  | CC[C@H](C)[C@@H]1NC(=O)[C@@H]2CCN2C(=O)[C@@H]2CCCN2C(=O)[C@H](Cc2ccccc2)NC(=O)[C@H](Cc2ccc(O)cc2)NC(=O)[C@H](CCC(N)=O)NC(=O)[C@H](CCCNC(N)=O)NC(=O)[C@@H](NC(=O)CCC(C)C)CSSC[C@@H](C(N)=O)NC(=O)[C@H](CC(C)C)NC1=O [UPAR-446, iHex-[Cys-Cit-Gln-Tyr-Phe-Pro-Aze-Ile-Leu-Cys]-NH2] ({Pentanoyl(4-Me)}-C[Cit]QYFP[Aze]ILC-NH2; disulfide 1-10) |
| 1.58 to 10 nM | ≤ 10 nM |  |  |  | CC[C@H](C)[C@@H]1NC(=O)[C@@H](C)NC(=O)[C@@H]2C[C@@H](O)CN2C(=O)[C@H](Cc2ccccc2)NC(=O)[C@H](Cc2ccc(O)cc2)NC(=O)[C@H](CCC(N)=O)NC(=O)[C@H](CCCNC(N)=O)NC(=O)[C@@H](NC(=O)CCC(C)C)CSSC[C@@H](C(N)=O)NC(=O)[C@H](CC(C)C)NC1=O [UPAR-439, iHex-[Cys-Cit-Gln-Tyr-Phe-Hyp-ala-Ile-Leu-Cys]-NH2] ({Pentanoyl(4-Me)}-C[Cit]QYF[Hyp][dA]ILC-NH2; disulfide 1-10) |
| 1.58 to 10 nM | ≥ 126 nM |  |  |  | CC[C@H](C)[C@@H]1NC(=O)[C@@H](C)NC(=O)[C@@H]2CCCN2C(=O)[C@H](Cc2ccccc2)NC(=O)[C@H](Cc2ccc(O)cc2)NC(=O)[C@H](CCC(N)=O)NC(=O)[C@H](CCCNC(=N)N)NC(=O)[C@@H](NC(=O)CCC(C)C)CSSC[C@@H](C(=O)NCCOCCOCC(=O)N[C@@H](CCCCNC(=O)CN2CCN(CC(=O)O)CCN(CC(=O)O)CCN(CC(=O)O)CC2)C(N)=O)NC(=O)[C@H](CC(C)C)NC1=O [UPAR-449, iHex-[Cys-Arg-Gln-Tyr-Phe-Pro-ala-Ile-Leu-Cys]-O2Oc-Lys(DOTA)-NH2] ({Pentanoyl(4-Me)}-CRQYFP[dA]ILC[AEEA]K(DOTA)-NH2; disulfide 1-10) |
| < 1.58 nM | ≤ 10 nM |  |  |  | CCCCC(=O)N[C@H]1CSSC[C@@H](C(N)=O)NC(=O)[C@H](CCC)NC(=O)[C@H]([C@@H](C)CC)NC(=O)[C@@H]2C[C@@H](O)CN2C(=O)[C@@H]2C[C@@H]3CCCC[C@@H]3N2C(=O)[C@H](Cc2ccccc2)NC(=O)[C@H](Cc2ccc(O)cc2)NC(=O)[C@H](CCC(N)=O)NC(=O)[C@H](CCCNC(=N)N)NC1=O [UPAR-387, Pent-[Cys-Arg-Gln-Tyr-Phe-Oic-Hyp-Ile-Nva-Cys]-NH2] (Pentanoyl-CRQYF[Oic][Hyp]I[Nva]C-NH2; disulfide 1-10) |
| < 1.58 nM | ≤ 10 nM |  |  |  | CC[C@H](C)[C@@H]1NC(=O)[C@@H](C)NC(=O)[C@@H]2CCCN2C(=O)[C@H](Cc2ccccc2)NC(=O)[C@H](Cc2ccc(O)cc2)NC(=O)[C@H](CCCNC(N)=O)NC(=O)[C@H](CCCNC(N)=O)NC(=O)[C@@H](NC(=O)CCC(C)C)CSSC[C@@H](C(N)=O)NC(=O)[C@H](CC(C)C)NC1=O [UPAR-445, iHex-[Cys-Cit-Cit-Tyr-Phe-Pro-ala-Ile-Leu-Cys]-NH2] ({Pentanoyl(4-Me)}-C[Cit][Cit]YFP[dA]ILC-NH2; disulfide 1-10) |
| < 1.58 nM | ≤ 10 nM |  |  |  | CCCCC(=O)N[C@H]1CSSC[C@@H](C(N)=O)NC(=O)[C@H](CCC)NC(=O)[C@H]([C@@H](C)CC)NC(=O)[C@@H]2C[C@@H](O)CN2C(=O)[C@@H]2CCCN2C(=O)[C@H](Cc2ccccc2)NC(=O)[C@H](Cc2ccccc2Cl)NC(=O)[C@H](CCC(N)=O)NC(=O)[C@H](CCCNC(=N)N)NC1=O [UPAR-395, Pent-[Cys-Arg-Gln-Ocf-Phe-Pro-Hyp-Ile-Nva-Cys]-NH2] (Pentanoyl-CRQ[Phe(2-Cl)]FP[Hyp]I[Nva]C-NH2; disulfide 1-10) |
| < 1.58 nM | ≤ 10 nM |  |  |  | CC[C@H](C)[C@@H]1NC(=O)[C@@H](C)NC(=O)[C@@H]2CSCN2C(=O)[C@H](Cc2ccccc2)NC(=O)[C@H](Cc2ccc(O)cc2)NC(=O)[C@H](CCC(N)=O)NC(=O)[C@H](CCCNC(N)=O)NC(=O)[C@@H](NC(=O)CCC(C)C)CSSC[C@@H](C(N)=O)NC(=O)[C@H](CC(C)C)NC1=O [UPAR-375, iHex-[Cys-Cit-Gln-Tyr-Phe-Eaz-ala-Ile-Leu-Cys]-NH2] ({Pentanoyl(4-Me)}-C[Cit]QYF[Thz][dA]ILC-NH2; disulfide 1-10) |
